Laboratory results reported in ChEMBL document CHEMBL5126551, “Spiral molecules with antimalarial activities: A review” (Eur J Med Chem, 2022).
Converted amounts (≈) assume the structure as drawn.

What was measured:
Plasmodium berghei = test: Antiplasmodial activity against luciferase expressing hepatic stage Plasmodium berghei sporozoites infected in human Huh-7 cells assessed as inhibition of parasite infection preincubated with cells for 1 hrs followed by parasite infection and measured after 48 hrs by bioluminescence assay; type: functional, organism-based
Plasmodium falciparum [1] = test: Antimalarial activity against Plasmodium falciparum NF54 assessed as inhibition of parasite growth incubated for 72 hrs by DAPI-staining based microscopic analysis; type: functional, organism-based; settings: NF54, 72 h
Plasmodium falciparum [2] = test: Antimalarial activity against Plasmodium falciparum K1 assessed as inhibition of parasite growth incubated for 72 hrs by DAPI-staining based microscopic analysis; type: functional, organism-based; settings: K1, 72 h
Plasmodium falciparum [3] = test: Antimalarial activity against chloroquine and quinine sensitive Plasmodium falciparum assessed as inhibition of parasite growth; type: functional, organism-based
Plasmodium falciparum [4] = test: Antimalarial activity against Plasmodium falciparum Cam3.I^R539T assessed as reduction in parasite survival at 49 nM measured after 6 hrs relative to control; type: functional
Plasmodium falciparum [5] = test: Antimalarial activity against Plasmodium falciparum Cam3.I^R539T assessed as reduction in parasite survival at 700 nM measured after 6 hrs relative to control; type: functional
Plasmodium falciparum [6] = test: Antimalarial activity against Plasmodium falciparum Cam3.I^R539T assessed as reduction in parasite survival at 350 nM measured after 6 hrs relative to control; type: functional
Plasmodium falciparum [7] = test: Antimalarial activity against Plasmodium falciparum Cam3.I^R539T assessed as reduction in parasite survival at 175 nM measured after 6 hrs relative to control; type: functional
Plasmodium falciparum [8] = test: Antimalarial activity against Plasmodium falciparum Cam3.I^R539T assessed as reduction in parasite survival at 88 nM measured after 6 hrs relative to control; type: functional
Plasmodium falciparum [9] = test: Antimalarial activity against chloroquine-resistant Plasmodium falciparum FCR3 infected in human erythrocytes assessed as inhibition of parasite growth incubated for 48 hrs by [3H]-hypoxanthine incorporation assay; type: functional, organism-based
Plasmodium falciparum [10] = test: Antimalarial activity against chloroquine-sensitive Plasmodium falciparum 3D7 infected in human erythrocytes assessed as inhibition of parasite growth incubated for 48 hrs by parasite lactate dehydrogenase based colorimetric assay; type: functional, organism-based; settings: 3D7, 48 h
Plasmodium falciparum [11] = test: Antimalarial activity against Plasmodium falciparum 3D7 infected in human plasma assessed as inhibition of parasite growth by Giema staining based assay; type: functional, organism-based; settings: 3D7, Plasma
Plasmodium falciparum [12] = test: Antimalarial activity against chloroquine and antifolate resistant Plasmodium falciparum K1 infected in human erythrocyte preincubated for 24 hrs followed by hypoxanthine addition and measured after 18 to 20 hrs by [3H]-hypoxanthine incorporation assay; type: functional, organism-based
Plasmodium falciparum [13] = test: Antimalarial activity against chloroquine-resistant Plasmodium falciparum K14 infected in human red blood cells assessed as inhibition of parasite growth incubated for 42 hrs by [3H]-hypoxanthine incorporation assay; type: functional, organism-based, Red blood cell; settings: K14, Erythrocyte
Plasmodium falciparum [14] = test: Antimalarial activity against Plasmodium falciparum V1/S assessed as inhibition of parasite growth; type: functional, organism-based
Plasmodium falciparum [15] = test: Antimalarial activity against Plasmodium falciparum FCB assessed as inhibition of parasite growth; type: functional, organism-based
Plasmodium falciparum [16] = test: Antimalarial activity against Plasmodium falciparum D6 assessed as inhibition of parasite growth; type: functional, organism-based
Plasmodium falciparum [17] = test: Antimalarial activity against Plasmodium falciparum 7G8 assessed as inhibition of parasite growth; type: functional, organism-based
Plasmodium falciparum [18] = test: Antimalarial activity against Plasmodium falciparum HB3 assessed as inhibition of parasite growth; type: functional, organism-based
Plasmodium falciparum [19] = test: Antimalarial activity against Plasmodium falciparum Dd2 assessed as inhibition of parasite growth; type: functional, organism-based
Plasmodium falciparum [20] = test: Antimalarial activity against Plasmodium falciparum 3D7 assessed as inhibition of parasite growth; type: functional, organism-based
Plasmodium falciparum [21] = test: Antimalarial activity against Plasmodium falciparum TM90C2B assessed as inhibition of parasite growth; type: functional, organism-based
Plasmodium falciparum [22] = test: Antimalarial activity against Plasmodium falciparum 1 assessed as inhibition of parasite growth; type: functional, organism-based
Plasmodium falciparum [23] = test: Antimalarial activity against chloroquine resistant Plasmodium falciparum K1 assessed as inhibition of parasite growth by [3H]-hypoxanthine incorporation assay; type: functional, organism-based
Plasmodium falciparum [24] = test: Antimalarial activity against chloroquine sensitive Plasmodium falciparum NF54 assessed as inhibition of parasite growth by [3H]-hypoxanthine incorporation assay; type: functional, organism-based
[25] = Cytotoxicity against human MRC5 cells assessed as inhibition of cell growth incubated for 7 days by MTT assay; type: toxicity, cell-based
Plasmodium falciparum [26] = test: Antimalarial activity against chloroquine-resistant Plasmodium falciparum K1 infected in human erythrocytes incubated for 72 hrs by parasite lactate dehydrogenase assay; type: functional, organism-based; settings: K1, Erythrocyte

CC(C)(C)OC(=O)C1C(c2ccccc2)(c2ccccc2)C12C(=O)N1[C@@H](C(=O)OC(c3ccccc3)c3ccccc3)C(C)(C)S[C@@H]12 (stereo partly specified)
IC50 (Plasmodium berghei): 2670 nM

C=CCOc1c2n(c3ccccc13)C=CC[C@@]21C(=O)c2ccccc2N1CC=C
IC50 (Plasmodium falciparum [1]): ≥ 5000 nM | IC50 (Plasmodium falciparum [2]): ≥ 5000 nM

CC(C)OC(=O)C1=C2N=C(c3cccnc3)NN2C2=C(C(=O)CCC2)C12C(=O)Nc1ccc(F)cc12 (stereo unspecified)
IC50 (Plasmodium falciparum [3]): 454 nM

CC1(C)CC(O)(Cc2ccc(C3CCC4(CC3)OOC3(O4)C4CC5CC(C4)CC3C5)cc2)CC(C)(C)N1 (stereo unspecified)
Activity (Plasmodium falciparum [4]): 1.29% | Activity (Plasmodium falciparum [5]): 0% | Activity (Plasmodium falciparum [6]): 0% | Activity (Plasmodium falciparum [7]): 0.12% | Activity (Plasmodium falciparum [8]): 0.17%

COc1cc([C@@H]2c3cc(Br)ccc3NC3(C(=O)Nc4ccccc43)[C@H]2C)ccc1O (stereo partly specified)
IC50 (Plasmodium falciparum [9]): 1520 nM | IC50 (Plasmodium falciparum [10]): 1310 nM

CCOC(=O)C1=C2N=C(c3cccnc3)NN2C2=C(C(=O)CCC2)C12C(=O)Nc1ccccc12 (stereo unspecified)
IC50 (Plasmodium falciparum [3]): 422 nM

CC1=CC(=O)CC(C)(C)[C@@]12C=C[C@H](C)O2
IC50 (Plasmodium falciparum [11]): 27 nM

C=CCN1C(=O)[C@@]2(c3ccccc31)C(c1ccccc1)C=CN1N3C=CC=CC3C(=O)[C@@]12C/C=C/c1ccccc1 (stereo partly specified)
IC50 (Plasmodium falciparum [12]): 8300 nM

C=CCN1C(=O)[C@]2(CC=CN3c4ccccc4C(=O)[C@@]32CC=C)c2ccccc21
IC50 (Plasmodium falciparum [12]): 9300 nM

O=C1OC[C@H](CN2C3=C4C(=O)c5ccccc5C4C[C@@H]4CO[C@@]3(O4)c3ccccc32)O1 (stereo partly specified)
IC50 (Plasmodium falciparum [1]): 9 nM | IC50 (Plasmodium falciparum [2]): 9 nM

CC(=O)O[C@@H]1[C@H](C)[C@@H](C)O[C@@]2([C@@H]1C)[C@@H](C)C=C(C)C(=O)[C@@H]2C
IC50 (Plasmodium falciparum [11]): 16000 nM

c1cc(C2CCC3(CC2)OOC2(O3)C3CC4CC(C3)CC2C4)ccc1OCCC1CCNCC1 (stereo unspecified)
Activity (Plasmodium falciparum [4]): 0.76% | Activity (Plasmodium falciparum [5]): 0% | Activity (Plasmodium falciparum [6]): 0% | Activity (Plasmodium falciparum [7]): 0% | Activity (Plasmodium falciparum [8]): 0%

CCN(CC)c1ccc(N2C(=O)C(Oc3ccccc3)C23c2ccccc2-c2ccccc23)cc1 (stereo unspecified)
IC50 (Plasmodium falciparum [13]): 6400 nM

CCOC(=O)C1=C2N=C(c3cccnc3)NN2C2=C(C(=O)CCC2)C12C(=O)Nc1ccc(F)cc12 (stereo unspecified)
IC50 (Plasmodium falciparum [3]): 122 nM

FC1CCN(CCOc2ccc(C3CCC4(CC3)OOC3(OO4)C4CCCC3CCC4)cc2)CC1 (stereo unspecified)
IC50 (Plasmodium falciparum [14]): 4.2 nM | IC50 (Plasmodium falciparum [15]): 14 nM | IC50 (Plasmodium falciparum [16]): 8.5 nM | IC50 (Plasmodium falciparum [17]): 2.9 nM | IC50 (Plasmodium falciparum [18]): 4.2 nM | IC50 (Plasmodium falciparum [19]): 7.7 nM | IC50 (Plasmodium falciparum [20]): 5.1 nM | IC50 (Plasmodium falciparum [21]): 7.3 nM | IC50 (Plasmodium falciparum [22]): 4.2 nM

NCC1CCC2(CC1)OOC1(O2)C2CC3CC(C2)CC1C3 (stereo unspecified)
IC50 (Plasmodium falciparum [23]): 0.39 ng/mL (≈ 1.33 nM) | IC50 (Plasmodium falciparum [24]): 0.42 ng/mL (≈ 1.43 nM)

CC(C)(N)CNC(=O)CC1CCC2(CC1)OOC1(O2)C2CC3CC(C2)CC1C3 (stereo unspecified)
IC50 (Plasmodium falciparum [23]): 0.57 ng/mL (≈ 1.45 nM) | IC50 (Plasmodium falciparum [24]): 0.54 ng/mL (≈ 1.38 nM)

COc1cc2c(cc1O)CCN1CC=C3C=C[C@H](OC)C[C@]321 [ERYSODINE]
IC50 at 7 days [25]: > 64000 nM | IC50 (Plasmodium falciparum [26]): 6500 nM

COc1cc2c(cc1OC)[C@]13C[C@@H](OC)C=CC1=CCN3CC2 [ERYSOTRINE]
IC50 at 7 days [25]: > 64000 nM | IC50 (Plasmodium falciparum [26]): 20600 nM

COc1cc2c(cc1O)[C@]13C[C@@H](OC)C=CC1=CCN3CC2 [ERYSOVINE]
IC50 at 7 days [25]: > 64000 nM | IC50 (Plasmodium falciparum [26]): 4100 nM

CO[C@H]1C=CC2=CCN3CCc4cc5c(cc4[C@]23C1)OCO5 [ERYTHRALINE]
IC50 at 7 days [25]: > 64000 nM | IC50 (Plasmodium falciparum [26]): 7300 nM
